Columns and labels:
Assay type in all cases: in vivo
[1] = tested on: chickweed (common chickweed, Stellaria media); assay: Test C postemergence greenhouse test, plant response rating 0-100; conditions: for Plant response rating, Chickweed: scale 0 to 100
How it was run: (§1)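 Postemergence spray onto 1–4-leaf potted seedlings, greenhouse incubation 13–15 days. Visual percent-control rating (0–100) against untreated plants.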

[2] = tested on: kochia (Kochia scoparia); assay: as above; conditions: for Plant response rating, Kochia: scale 0 to 100
How it was run: as §1

[3] = tested on: wild oat (Avena fatua); assay: as above; conditions: for Plant response rating, Oat, Wild: scale 0 to 100
How it was run: as §1

[4] = tested on: johnsongrass (Sorghum halepense); assay: Test C pre-/postemergence greenhouse test, plant response rating 0-100
How it was run: (§2)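 Pre-emergence soil and post-emergence foliar sprays were applied simultaneously to seeded loam–sand pots and to 1–4-leaf plants in peat medium; greenhouse holding lasted 13–15 days, then plants were scored visually from 0 (no effect) to 100 (complete control).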

[5] = tested on: winter wheat (Triticum aestivum); assay: as above
How it was run: as §2

[6] = tested on: blackgrass (Alopecurus myosuroides); assay: as above
How it was run: as §2

[7] = tested on: galium (catchweed bedstraw, Galium aparine); assay: as above
How it was run: as §2

[8] = tested on: lambsquarters (Chenopodium album); assay: as above
How it was run: as §2

[9] = tested on: soybean (Glycine max); assay: as above
How it was run: as §2

[10] = tested on: large (Lg) crabgrass (Digitaria sanguinalis); assay: as above
How it was run: as §2

[11] = tested on: yellow nutsedge (Cyperus esculentus); assay: as above
How it was run: as §2

[12] = tested on: morningglory (Ipomoea coccinea); assay: as above
How it was run: as §2

[13] = tested on: giant foxtail (Setaria faberii); assay: as above
How it was run: as §2

[14] = Postemergence, 250 g ai/ha, scale 0 to 100
[15] = Postemergence, 500 g ai/ha, scale 0 to 100

O=C(c1ccccc1)c1cn(S(=O)(=O)CC(F)(F)F)nc1-c1cc(Cl)cc(Cl)c1 [Compound 3]
Plant response rating (0 to 100), Chickweed ([1]; 62 g ai/ha): 100 | Plant response rating (0 to 100), Chickweed ([1]; 125 g ai/ha): 100 | Plant response rating, Chickweed ([1]; 250 g ai/ha): 100 | Plant response rating, Chickweed ([1]; 500 g ai/ha): 100 | Plant response rating (0 to 100), Kochia ([2]; 62 g ai/ha): 80 | Plant response rating (0 to 100), Kochia ([2]; 125 g ai/ha): 85 | Plant response rating, Kochia ([2]; 250 g ai/ha): 85 | Plant response rating, Kochia ([2]; 500 g ai/ha): 85 | Plant response rating (0 to 100), Oat, Wild ([3]; 62 g ai/ha): 0 | Plant response rating (0 to 100), Oat, Wild ([3]; 125 g ai/ha): 0 | Plant response rating, Oat, Wild ([3]; 250 g ai/ha): 0 | Plant response rating, Oat, Wild ([3]; 500 g ai/ha): 0 | Plant response rating (0 to 100), Johnsongrass ([4]; Postemergence, 62 g ai/ha): 0 | Plant response rating (0 to 100), Johnsongrass ([4]; Postemergence, 125 g ai/ha): 0 | Plant response rating, Johnsongrass [4, 14]: 0 | Plant response rating, Johnsongrass [4, 15]: 0 | Plant response rating, Johnsongrass ([4]; Preemergence, 62 g ai/ha): 0 | Plant response rating, Johnsongrass ([4]; Preemergence, 125 g ai/ha): 0 | Plant response rating, Johnsongrass ([4]; Preemergence, 250 g ai/ha): 0 | Plant response rating, Johnsongrass ([4]; Preemergence, 500 g ai/ha): 0 | Plant response rating (0 to 100), Wheat ([5]; Postemergence, 62 g ai/ha): 0 | Plant response rating (0 to 100), Wheat ([5]; Postemergence, 125 g ai/ha): 0 | Plant response rating, Wheat [5, 14]: 0 | Plant response rating, Wheat [5, 15]: 0 | Plant response rating, Wheat ([5]; Preemergence, 62 g ai/ha): 0 | Plant response rating, Wheat ([5]; Preemergence, 125 g ai/ha): 0 | Plant response rating, Wheat ([5]; Preemergence, 250 g ai/ha): 0 | Plant response rating, Wheat ([5]; Preemergence, 500 g ai/ha): 0 | Plant response rating, Wheat ([5]; Preemergence, 0 to 100 scale (0 no effect, 100 complete control), rate 500 g ai/ha): 0 | Plant response rating (0 to 100), Blackgrass ([6]; Postemergence, 62 g ai/ha): 0 | Plant response rating, Blackgrass ([6]; Postemergence, 125 g ai/ha, scale 0 to 100): 0 | Plant response rating, Blackgrass [6, 14]: 0 | Plant response rating, Blackgrass [6, 15]: 0 | Plant response rating, Blackgrass ([6]; Preemergence, 62 g ai/ha): 0 | Plant response rating, Blackgrass ([6]; Preemergence, 125 g ai/ha): 0 | Plant response rating, Blackgrass ([6]; Preemergence, 250 g ai/ha): 0 | Plant response rating, Blackgrass ([6]; Preemergence, 500 g ai/ha): 0 | Plant response rating (0 to 100), Galium ([7]; Postemergence, 62 g ai/ha): 0 | Plant response rating (0 to 100), Galium ([7]; Postemergence, 125 g ai/ha): 0 | Plant response rating, Galium [7, 14]: 20 | Plant response rating, Galium [7, 15]: 30 | Plant response rating, Galium ([7]; Preemergence, 62 g ai/ha): 0 | Plant response rating, Galium ([7]; Preemergence, 125 g ai/ha): 0 | Plant response rating, Galium ([7]; Preemergence, 250 g ai/ha): 0 | Plant response rating, Galium ([7]; Preemergence, 500 g ai/ha): 0 | Plant response rating (0 to 100), Lambsquarters ([8]; Postemergence, 62 g ai/ha): 55 | Plant response rating, Lambsquarters [8, 14]: 80 | Plant response rating, Lambsquarters [8, 15]: 100 | Plant response rating, Lambsquarters ([8]; Preemergence, 62 g ai/ha): 100 | Plant response rating, Lambsquarters ([8]; Preemergence, 125 g ai/ha): 100 | Plant response rating, Lambsquarters ([8]; Preemergence, 250 g ai/ha): 100 | Plant response rating, Lambsquarters ([8]; Preemergence, 500 g ai/ha): 100 | Plant response rating (0 to 100), Soybean ([9]; Postemergence, 62 g ai/ha): 0 | Plant response rating (0 to 100), Soybean ([9]; Postemergence, 125 g ai/ha): 0 | Plant response rating, Soybean [9, 14]: 0 | Plant response rating, Soybean [9, 15]: 0 | Plant response rating, Soybean ([9]; Preemergence, 62 g ai/ha): 0 | Plant response rating, Soybean ([9]; Preemergence, 125 g ai/ha): 0 | Plant response rating, Soybean ([9]; Preemergence, 250 g ai/ha): 0 | Plant response rating, Soybean ([9]; Preemergence, 500 g ai/ha): 0 | Plant response rating, Soybean ([9]; Preemergence, 0 to 100 scale (0 no effect, 100 complete control), rate 500 g ai/ha per head r3, sub-head of this section not shown): 0 | Plant response rating (0 to 100), Crabgrass, Large ([10]; Postemergence, 62 g ai/ha): 0 | Plant response rating (0 to 100), Crabgrass, Large ([10]; Postemergence, 125 g ai/ha): 5 | Plant response rating, Crabgrass, Large [10, 14]: 5 | Plant response rating, Crabgrass, Large [10, 15]: 5 | Plant response rating, Crabgrass, Large ([10]; Preemergence, 62 g ai/ha): 0 | Plant response rating, Crabgrass, Large ([10]; Preemergence, 125 g ai/ha): 0 | Plant response rating, Crabgrass, Large ([10]; Preemergence, 250 g ai/ha): 0 | Plant response rating, Crabgrass, Large ([10]; Preemergence, 500 g ai/ha): 0 | Plant response rating (0 to 100), Nutsedge, Yellow ([11]; Postemergence, 62 g ai/ha): 0 | Plant response rating (0 to 100), Nutsedge, Yellow ([11]; Postemergence, 125 g ai/ha): 0 | Plant response rating, Nutsedge, Yellow [11, 14]: 0 | Plant response rating, Nutsedge, Yellow [11, 15]: 0 | Plant response rating, Nutsedge, Yellow ([11]; Preemergence, 62 g ai/ha): 0 | Plant response rating, Nutsedge, Yellow ([11]; Preemergence, 125 g ai/ha): 0 | Plant response rating, Nutsedge, Yellow ([11]; Preemergence, 250 g ai/ha): 0 | Plant response rating, Nutsedge, Yellow ([11]; Preemergence, 500 g ai/ha): 0 | Plant response rating (0 to 100), Morningglory ([12]; Postemergence, 62 g ai/ha): 0 | Plant response rating (0 to 100), Morningglory ([12]; Postemergence, 125 g ai/ha): 0 | Plant response rating, Morningglory [12, 14]: 0 | Plant response rating, Morningglory [12, 15]: 0 | Plant response rating, Morningglory ([12]; Preemergence, 62 g ai/ha): 0 | Plant response rating, Morningglory ([12]; Preemergence, 125 g ai/ha): 0 | Plant response rating, Morningglory ([12]; Preemergence, 250 g ai/ha): 10 | Plant response rating, Morningglory ([12]; Preemergence, 500 g ai/ha): 10 | Plant response rating (0 to 100), Foxtail, Giant ([13]; Postemergence, 62 g ai/ha): 0 | Plant response rating (0 to 100), Foxtail, Giant ([13]; Postemergence, 125 g ai/ha): 0 | Plant response rating, Foxtail, Giant [13, 14]: 0 | Plant response rating, Foxtail, Giant [13, 15]: 0 | Plant response rating, Foxtail, Giant ([13]; Preemergence, 62 g ai/ha): 0 | Plant response rating, Foxtail, Giant ([13]; Preemergence, 125 g ai/ha): 0 | Plant response rating, Foxtail, Giant ([13]; Preemergence, 250 g ai/ha): 0 | Plant response rating, Foxtail, Giant ([13]; Preemergence, 500 g ai/ha): 0

Fc1cccc(NN=C(c2ccccc2)c2c[nH]nc2-c2cc(Cl)cc(Cl)c2)c1 [Compound 58]
Plant response rating (0 to 100), Chickweed ([1]; 62 g ai/ha): 70 | Plant response rating (0 to 100), Chickweed ([1]; 125 g ai/ha): 100 | Plant response rating, Chickweed ([1]; 250 g ai/ha): 100 | Plant response rating, Chickweed ([1]; 500 g ai/ha): 100 | Plant response rating (0 to 100), Kochia ([2]; 62 g ai/ha): 15 | Plant response rating (0 to 100), Kochia ([2]; 125 g ai/ha): 50 | Plant response rating, Kochia ([2]; 250 g ai/ha): 98 | Plant response rating, Kochia ([2]; 500 g ai/ha): 98 | Plant response rating (0 to 100), Oat, Wild ([3]; 62 g ai/ha): 0 | Plant response rating (0 to 100), Oat, Wild ([3]; 125 g ai/ha): 0 | Plant response rating, Oat, Wild ([3]; 250 g ai/ha): 0 | Plant response rating, Oat, Wild ([3]; 500 g ai/ha): 0 | Plant response rating (0 to 100), Johnsongrass ([4]; Postemergence, 62 g ai/ha): 0 | Plant response rating (0 to 100), Johnsongrass ([4]; Postemergence, 125 g ai/ha): 25 | Plant response rating, Johnsongrass [4, 14]: 25 | Plant response rating, Johnsongrass [4, 15]: 25 | Plant response rating (0 to 100), Wheat ([5]; Postemergence, 62 g ai/ha): 0 | Plant response rating (0 to 100), Wheat ([5]; Postemergence, 125 g ai/ha): 0 | Plant response rating, Wheat [5, 14]: 0 | Plant response rating, Wheat [5, 15]: 0 | Plant response rating (0 to 100), Blackgrass ([6]; Postemergence, 62 g ai/ha): 0 | Plant response rating (0 to 100), Blackgrass ([6]; Postemergence, 125 g ai/ha): 0 | Plant response rating, Blackgrass [6, 14]: 0 | Plant response rating, Blackgrass [6, 15]: 0 | Plant response rating (0 to 100), Galium ([7]; Postemergence, 62 g ai/ha): 0 | Plant response rating (0 to 100), Galium ([7]; Postemergence, 125 g ai/ha): 0 | Plant response rating, Galium [7, 14]: 0 | Plant response rating, Galium [7, 15]: 5 | Plant response rating (0 to 100), Lambsquarters ([8]; Postemergence, 62 g ai/ha): 70 | Plant response rating (0 to 100), Lambsquarters ([8]; Postemergence, 125 g ai/ha): 100 | Plant response rating, Lambsquarters [8, 14]: 100 | Plant response rating, Lambsquarters [8, 15]: 100 | Plant response rating (0 to 100), Soybean ([9]; Postemergence, 62 g ai/ha): 0 | Plant response rating (0 to 100), Soybean ([9]; Postemergence, 125 g ai/ha): 5 | Plant response rating, Soybean [9, 14]: 10 | Plant response rating, Soybean [9, 15]: 10 | Plant response rating (0 to 100), Crabgrass, Large ([10]; Postemergence, 62 g ai/ha): 5 | Plant response rating (0 to 100), Crabgrass, Large ([10]; Postemergence, 125 g ai/ha): 5 | Plant response rating, Crabgrass, Large [10, 14]: 5 | Plant response rating, Crabgrass, Large [10, 15]: 5 | Plant response rating (0 to 100), Nutsedge, Yellow ([11]; Postemergence, 62 g ai/ha): 0 | Plant response rating (0 to 100), Nutsedge, Yellow ([11]; Postemergence, 125 g ai/ha): 0 | Plant response rating, Nutsedge, Yellow [11, 14]: 0 | Plant response rating, Nutsedge, Yellow [11, 15]: 0 | Plant response rating (0 to 100), Morningglory ([12]; Postemergence, 62 g ai/ha): 0 | Plant response rating (0 to 100), Morningglory ([12]; Postemergence, 125 g ai/ha): 0 | Plant response rating, Morningglory [12, 14]: 0 | Plant response rating, Morningglory [12, 15]: 0 | Plant response rating (0 to 100), Foxtail, Giant ([13]; Postemergence, 62 g ai/ha): 0 | Plant response rating (0 to 100), Foxtail, Giant ([13]; Postemergence, 125 g ai/ha): 0 | Plant response rating, Foxtail, Giant [13, 14]: 0 | Plant response rating, Foxtail, Giant [13, 15]: 5
